Key:
[1] = tested on: Pseudoperonospora cubensis; experiment: Fungicidal activity against Pseudoperonospora cubensis assessed as cucumber downy mildew disease control at 7.8 ppm foliar application 24 hr before inoculation on upper surface of leaf by preventive manner; assay type: functional
Botrytis cinerea [2] = experiment: Fungicidal activity against Botryotinia fuckeliana assessed as inhibition of mycelial growth by agar dilution method; assay type: functional, organism-based
Thanatephorus cucumeris [3] = experiment: Fungicidal activity against Thanatephorus cucumeris assessed as rice sheath blight disease control at 7.8 ppm foliar application for 24 hr before inoculation at 26 +- 2 measured after 5 days by preventive manner; assay type: functional
[4] = tested on: Pseudoperonospora cubensis; experiment: Fungicidal activity against Pseudoperonospora cubensis assessed as cucumber downy mildew disease control at 125 ppm foliar application 24 hr before inoculation on upper surface of leaf by preventive manner; assay type: functional
Podosphaera fuliginea [5] = experiment: Fungicidal activity against Podosphaera fuliginea assessed as cucumber powdery mildew control under greenhouse at 31.3 ppm foliar application 24 hr before inoculation on upper surface of leaf at 23 +/- 2 degC by preventive manner; assay type: functional
Colletotrichum lagenaria = experiment: Fungicidal activity against Colletotrichum lagenaria assessed as inhibition of mycelial growth by agar dilution method; assay type: functional, organism-based
Thanatephorus cucumeris [6] = experiment: Fungicidal activity against Thanatephorus cucumeris assessed as rice sheath blight disease control at 31.3 ppm foliar application for 24 hr before inoculation at 26 +- 2 measured after 5 days by preventive manner; assay type: functional
Fusarium oxysporum = experiment: Fungicidal activity against Fusarium oxysporum assessed as inhibition of mycelial growth by agar dilution method; assay type: functional, organism-based
Athelia rolfsii = experiment: Fungicidal activity against Athelia rolfsii assessed as inhibition of mycelial growth by agar dilution method; assay type: functional, organism-based, Agroathelia rolfsii
Cladosporium herbarum = experiment: Fungicidal activity against Cladosporium herbarum assessed as inhibition of mycelial growth by agar dilution method; assay type: functional, organism-based
Botrytis cinerea [7] = experiment: Fungicidal activity against Botryotinia fuckeliana assessed as cucumber gray mold disease control at 31.3 ppm foliar application 24 hr before inoculation at 22 +/- 2 degC measured after 3 days by preventive manner; assay type: functional
[8] = tested on: Colletotrichum gloeosporioides; experiment: Fungicidal activity against Glomerella cingulata assessed as inhibition of mycelial growth by agar dilution method; assay type: functional, organism-based
[9] = tested on: Pseudoperonospora cubensis; experiment: Fungicidal activity against Pseudoperonospora cubensis assessed as cucumber downy mildew disease control at 31.3 ppm foliar application 24 hr before inoculation on upper surface of leaf by preventive manner; assay type: functional
Botrytis cinerea [10] = experiment: Fungicidal activity against Botryotinia fuckeliana assessed as cucumber gray mold disease control at 7.8 ppm foliar application 24 hr before inoculation at 22 +/- 2 degC measured after 3 days by preventive manner; assay type: functional
Podosphaera fuliginea [11] = experiment: Fungicidal activity against Podosphaera fuliginea assessed as cucumber powdery mildew control under greenhouse at 125 ppm foliar application 24 hr before inoculation on upper surface of leaf at 23 +/- 2 degC by preventive manner; assay type: functional
Podosphaera fuliginea [12] = experiment: Fungicidal activity against Podosphaera fuliginea assessed as cucumber powdery mildew control under greenhouse at 7.8 ppm foliar application 24 hr before inoculation on upper surface of leaf at 23 +/- 2 degC by preventive manner; assay type: functional
Pythium aphanidermatum = experiment: Fungicidal activity against Pythium aphanidermatum assessed as inhibition of mycelial growth by agar dilution method; assay type: functional, organism-based
Sclerotinia sclerotiorum = experiment: Fungicidal activity against Sclerotinia sclerotiorum assessed as inhibition of mycelial growth by agar dilution method; assay type: functional, organism-based
Pyricularia oryzae [13] = experiment: Fungicidal activity against Magnaporthe oryzae assessed as inhibition of mycelial growth by agar dilution method; assay type: functional, organism-based
Botrytis cinerea [14] = experiment: Fungicidal activity against Botryotinia fuckeliana assessed as cucumber gray mold disease control at 125 ppm foliar application 24 hr before inoculation at 22 +/- 2 degC measured after 3 days by preventive manner; assay type: functional
Alternaria alternata = experiment: Fungicidal activity against Alternaria alternata apple pathotype assessed as inhibition of mycelial growth by agar dilution method; assay type: functional, organism-based
Thanatephorus cucumeris [15] = experiment: Fungicidal activity against Thanatephorus cucumeris assessed as rice sheath blight disease control at 125 ppm foliar application for 24 hr before inoculation at 26 +- 2 measured after 5 days by preventive manner; assay type: functional
Botrytis cinerea [16] = experiment: Fungicidal activity against Botryotinia fuckeliana assessed as cucumber gray mold disease control at 2 ppm foliar application 24 hr before inoculation at 22 +/- 2 degC measured after 3 days by preventive manner; assay type: functional
Podosphaera fuliginea [17] = experiment: Fungicidal activity against Podosphaera fuliginea assessed as cucumber powdery mildew control under greenhouse at 2 ppm foliar application 24 hr before inoculation on upper surface of leaf at 23 +/- 2 degC by preventive manner; assay type: functional
[18] = tested on: Pseudoperonospora cubensis; experiment: Fungicidal activity against Pseudoperonospora cubensis assessed as cucumber downy mildew disease control at 2 ppm foliar application 24 hr before inoculation on upper surface of leaf by preventive manner; assay type: functional
Thanatephorus cucumeris [19] = experiment: Fungicidal activity against Thanatephorus cucumeris assessed as rice sheath blight disease control at 2 ppm foliar application for 24 hr before inoculation at 26 +- 2 measured after 5 days by preventive manner; assay type: functional
Podosphaera fuliginea [20] = experiment: Fungicidal activity against Podosphaera fuliginea assessed as cucumber powdery mildew control under greenhouse at 7.8 ppm foliar application 24 hr after inoculation on upper surface of leaf at 23 +/- 2 degC by curative manner; assay type: functional
Pyricularia oryzae [21] = experiment: Fungicidal activity against Magnaporthe oryzae assessed as rice blast disease control at 0.16 ppm submerged application measured after 7 days; assay type: functional
Pyricularia oryzae [22] = experiment: Fungicidal activity against Magnaporthe oryzae assessed as rice blast disease control at 0.63 ppm submerged application measured after 7 days; assay type: functional
Podosphaera fuliginea [23] = experiment: Fungicidal activity against Podosphaera fuliginea assessed as cucumber powdery mildew control under greenhouse at 125 ppm foliar application 24 hr after inoculation on upper surface of leaf at 23 +/- 2 degC by curative manner; assay type: functional
Podosphaera fuliginea [24] = experiment: Fungicidal activity against Podosphaera fuliginea assessed as cucumber powdery mildew control under greenhouse at 2 ppm foliar application 24 hr after inoculation on upper surface of leaf at 23 +/- 2 degC by curative manner; assay type: functional
Podosphaera fuliginea [25] = experiment: Fungicidal activity against Podosphaera fuliginea assessed as cucumber powdery mildew control under greenhouse at 31.3 ppm foliar application 24 hr after inoculation on upper surface of leaf at 23 +/- 2 degC by curative manner; assay type: functional
Pyricularia oryzae [26] = experiment: Fungicidal activity against Magnaporthe oryzae assessed as rice blast disease control at 2.5 ppm submerged application measured after 7 days; assay type: functional
Pyricularia oryzae [27] = experiment: Fungicidal activity against Magnaporthe oryzae assessed as rice blast disease control at 10 ppm submerged application measured after 7 days; assay type: functional
[28] = tested on: Pseudoperonospora cubensis; experiment: Fungicidal activity against Pseudoperonospora cubensis assessed as cucumber downy mildew disease control at 31.3 ppm foliar application 24 hr after inoculation on upper surface of leaf by curative manner; assay type: functional
Botrytis cinerea [29] = experiment: Fungicidal activity against Botryotinia fuckeliana assessed as cucumber gray mold disease control at 125 ppm foliar application 24 hr after inoculation at 22 +/- 2 degC measured after 3 days by curative manner; assay type: functional
Botrytis cinerea [30] = experiment: Fungicidal activity against Botryotinia fuckeliana assessed as cucumber gray mold disease control at 31.3 ppm foliar application 24 hr after inoculation at 22 +/- 2 degC measured after 3 days by curative manner; assay type: functional
[31] = tested on: Pseudoperonospora cubensis; experiment: Fungicidal activity against Pseudoperonospora cubensis assessed as cucumber downy mildew disease control at 2 ppm foliar application 24 hr after inoculation on upper surface of leaf by curative manner; assay type: functional
Botrytis cinerea [32] = experiment: Fungicidal activity against Botryotinia fuckeliana assessed as cucumber gray mold disease control at 7.8 ppm foliar application 24 hr after inoculation at 22 +/- 2 degC measured after 3 days by curative manner; assay type: functional
[33] = tested on: Pseudoperonospora cubensis; experiment: Fungicidal activity against Pseudoperonospora cubensis assessed as cucumber downy mildew disease control at 125 ppm foliar application 24 hr after inoculation on upper surface of leaf by curative manner; assay type: functional
Botrytis cinerea [34] = experiment: Fungicidal activity against Botryotinia fuckeliana assessed as cucumber gray mold disease control at 2 ppm foliar application 24 hr after inoculation at 22 +/- 2 degC measured after 3 days by curative manner; assay type: functional
[35] = tested on: Pseudoperonospora cubensis; experiment: Fungicidal activity against Pseudoperonospora cubensis assessed as cucumber downy mildew disease control at 7.8 ppm foliar application 24 hr after inoculation on upper surface of leaf by curative manner; assay type: functional

Compound `CNC(=O)/C(=N\OC)c1ccccc1Oc1ccccc1` has an Activity [1] of 0%, an EC50 (Botrytis cinerea [2]) of 1.7 ppm and an Activity (Thanatephorus cucumeris [3]) of 0%. The Activity [4] was 70%, the Activity (Podosphaera fuliginea [5]) was 100% and the EC50 (Colletotrichum lagenaria) was 61.8 ppm. For the same compound, the Activity (Thanatephorus cucumeris [6]) was 0%, the EC50 (Fusarium oxysporum) was 58.1 ppm and the EC50 (Athelia rolfsii) was 41.1 ppm. It also gave an EC50 (Cladosporium herbarum) of 41.8 ppm, an Activity (Botrytis cinerea [7]) of 36% and an EC50 [8] of 16.2 ppm. For the same compound, the Activity [9] was 0%, the Activity (Botrytis cinerea [10]) was 18% and the Activity (Podosphaera fuliginea [11]) was 100%. The Activity (Podosphaera fuliginea [12]) was 40%, the EC50 (Pythium aphanidermatum) was 28.1 ppm and the EC50 (Sclerotinia sclerotiorum) was 11.9 ppm. The EC50 (Pyricularia oryzae [13]) was 49.1 ppm, the Activity (Botrytis cinerea [14]) was 44% and the EC50 (Alternaria alternata) was greater than 64 ppm. It also gave an Activity (Thanatephorus cucumeris [15]) of 50%.
Compound `CNC(=O)/C(=N/OC)c1cc(C(F)(F)F)ccc1Oc1ccccc1` has an Activity [1] of less than 70%, an Activity (Thanatephorus cucumeris [3]) of less than 70% and an Activity [4] of less than 70%. For the same compound, the Activity (Botrytis cinerea [16]) was less than 70%, the Activity (Podosphaera fuliginea [5]) was less than 70% and the Activity (Podosphaera fuliginea [17]) was less than 70%. The Activity (Thanatephorus cucumeris [6]) was less than 70%, the Activity (Botrytis cinerea [7]) was less than 70% and the Activity [9] was less than 70%. It also gave an Activity (Botrytis cinerea [10]) of less than 70%, an Activity (Podosphaera fuliginea [11]) of less than 70% and an Activity (Podosphaera fuliginea [12]) of less than 70%. The Activity [18] was less than 70%, the Activity (Thanatephorus cucumeris [19]) was less than 70% and the Activity (Botrytis cinerea [14]) was less than 70%. The Activity (Thanatephorus cucumeris [15]) was less than 70%.
Work on `CNC(=O)/C(=N/OC)c1ccccc1Oc1ccc(OCc2ccccc2)cc1` yielded an Activity (Podosphaera fuliginea [20]) of less than 50%, an Activity [1] of less than 70% and an Activity (Thanatephorus cucumeris [3]) of less than 70%. It also gave an Activity [4] of less than 70%, an Activity (Botrytis cinerea [16]) of less than 70% and an Activity (Podosphaera fuliginea [5]) of less than 70%. For the same compound, the Activity (Podosphaera fuliginea [17]) was less than 70%, the Activity (Pyricularia oryzae [21]) was 50% and the Activity (Thanatephorus cucumeris [6]) was less than 70%. It also gave an Activity (Pyricularia oryzae [22]) of 50%, an Activity (Botrytis cinerea [7]) of less than 70% and an Activity [9] of less than 70%. The Activity (Botrytis cinerea [10]) was less than 70%, the Activity (Podosphaera fuliginea [23]) was less than 50% and the Activity (Podosphaera fuliginea [24]) was less than 50%. It also gave an Activity (Podosphaera fuliginea [11]) of less than 70%, an Activity (Podosphaera fuliginea [12]) of less than 70% and an Activity (Podosphaera fuliginea [25]) of less than 50%. For the same compound, the Activity [18] was less than 70%, the Activity (Thanatephorus cucumeris [19]) was less than 70% and the Activity (Botrytis cinerea [14]) was less than 70%. It also gave an Activity (Pyricularia oryzae [26]) of 50%, an Activity (Thanatephorus cucumeris [15]) of less than 70% and an Activity (Pyricularia oryzae [27]) of 50%.
Work on `CNC(=O)/C(=N/OC)c1cccc([N+](=O)[O-])c1Oc1ccccc1` yielded an Activity [1] of less than 70%, an Activity (Thanatephorus cucumeris [3]) of less than 70% and an Activity [4] of less than 70%. It also gave an Activity (Botrytis cinerea [16]) of less than 70%, an Activity (Podosphaera fuliginea [5]) of less than 70% and an Activity (Podosphaera fuliginea [17]) of less than 70%. The Activity (Thanatephorus cucumeris [6]) was less than 70%, the Activity (Botrytis cinerea [7]) was less than 70% and the Activity [9] was less than 70%. It also gave an Activity (Botrytis cinerea [10]) of less than 70%, an Activity (Podosphaera fuliginea [11]) of less than 70% and an Activity (Podosphaera fuliginea [12]) of less than 70%. The Activity [18] was less than 70%, the Activity (Thanatephorus cucumeris [19]) was less than 70% and the Activity (Botrytis cinerea [14]) was less than 70%. It also gave an Activity (Thanatephorus cucumeris [15]) of less than 70%.
In the case of `CNC(=O)/C(=N/OC)c1ccccc1Oc1ccccc1[N+](=O)[O-]`, the Activity (Podosphaera fuliginea [20]) is reported as less than 50%, the Activity [28] is reported as less than 50% and the Activity [1] is reported as less than 70%. It also gave an Activity (Thanatephorus cucumeris [3]) of less than 70%, an Activity [4] of less than 70% and an Activity (Botrytis cinerea [16]) of less than 70%. The Activity (Podosphaera fuliginea [5]) was less than 70%, the Activity (Botrytis cinerea [29]) was less than 50% and the Activity (Podosphaera fuliginea [17]) was less than 70%. For the same compound, the Activity (Botrytis cinerea [30]) was less than 50%, the Activity (Thanatephorus cucumeris [6]) was less than 70% and the Activity (Botrytis cinerea [7]) was less than 70%. The Activity [9] was less than 70%, the Activity (Botrytis cinerea [10]) was less than 70% and the Activity (Podosphaera fuliginea [23]) was less than 50%. For the same compound, the Activity (Podosphaera fuliginea [24]) was less than 50%, the Activity [31] was less than 50% and the Activity (Botrytis cinerea [32]) was less than 50%. It also gave an Activity [33] of less than 50%, an Activity (Podosphaera fuliginea [11]) of less than 70% and an Activity (Podosphaera fuliginea [12]) of less than 70%. For the same compound, the Activity (Podosphaera fuliginea [25]) was less than 50%, the Activity (Botrytis cinerea [34]) was less than 50% and the Activity [18] was less than 70%. For the same compound, the Activity (Thanatephorus cucumeris [19]) was less than 70%, the Activity [35] was less than 50% and the Activity (Botrytis cinerea [14]) was less than 70%. The Activity (Thanatephorus cucumeris [15]) was less than 70%.
